In brackets after ≈: the same amount, converted by molar mass.
What was measured:
[1] = biological target: DNA topoisomerase 2-alpha (Homo sapiens, UniProt P11388); assay: Inhibition of human topoisomerase-2alpha using catenated DNA as substrate after 30 mins by ethidium bromide-based gel electrophoresis
[2] = test system: Staphylococcus epidermidis; assay: Antibacterial activity against methicillin-sensitive Staphylococcus epidermidis after 18 to 20 hrs by CLSI-protocol based broth microdilution method; type: functional
[3] = test system: Staphylococcus epidermidis; assay: Antibacterial activity against methicillin-resistant Staphylococcus epidermidis after 18 to 20 hrs by CLSI-protocol based broth microdilution method; type: functional
[4] = test system: Streptococcus pneumoniae; assay: Antibacterial activity against penicillin-resistant Streptococcus pneumoniae after 18 to 20 hrs by CLSI-protocol based broth microdilution method; type: functional
[5] = test system: Streptococcus pyogenes; assay: Antibacterial activity against Streptococcus pyogenes after 18 to 20 hrs by CLSI-protocol based broth microdilution method; type: functional; conditions: Streptococcus pyogenes; read-out: MIC
[6] = test system: Neisseria gonorrhoeae; assay: Antibacterial activity against Neisseria gonorrhoeae after 18 to 20 hrs by CLSI-protocol based agar microdilution method; type: functional
[7] = AUCt in CD1 mouse at 10 mg/kg, po by LC-MS/MS analysis; type: ADME, organism-based; conditions: in vivo
[8] = MRT in CD1 mouse at 10 mg/kg, po by LC-MS/MS analysis; type: ADME, organism-based; conditions: in vivo
[9] = Cmax in CD1 mouse at 10 mg/kg, po by LC-MS/MS analysis; type: ADME, organism-based; design: dose 10 mg/kg, route oral; conditions: in vivo
[10] = Tmax in CD1 mouse at 10 mg/kg, po by LC-MS/MS analysis; type: ADME, organism-based; conditions: in vivo
[11] = Elimination half life in CD1 mouse at 10 mg/kg, po by LC-MS/MS analysis; type: ADME, organism-based; conditions: in vivo, read-out: beta t1/2 (converted)
[12] = AUCt in Sprague-Dawley rat at 100 mg/kg, po by LC-MS/MS analysis; type: ADME, organism-based; conditions: in vivo
[13] = Elimination half life in Sprague-Dawley rat at 100 mg/kg, po by LC-MS/MS analysis; type: ADME, organism-based; conditions: in vivo, read-out: beta t1/2 (converted)
[14] = Oral bioavailability in Sprague-Dawley rat at 100 mg/kg by LC-MS/MS analysis; type: ADME, organism-based; conditions: in vivo
[15] = Solubility of the compound in pH 6.8 intestinal juice incubated at 37 degC for 24 hrs by LC/MS/MS analysis; type: physicochemical
[16] = Solubility of the compound in pH 1.2 gastric juice incubated at 37 degC for 24 hrs by LC/MS/MS analysis; type: physicochemical
[17] = Solubility of the compound in water incubated at 37 degC for 24 hrs by LC/MS/MS analysis; type: physicochemical
[18] = biological target: Voltage-gated inwardly rectifying potassium channel KCNH2 (Homo sapiens, UniProt Q12809); assay: Inhibition of human ERG expressed in CHO cells in at -80 mV holding potential by automated Qpatch clamp assay; type: cell-based
Voltage-gated inwardly rectifying potassium channel KCNH2, sequence (Q12809 whole entry): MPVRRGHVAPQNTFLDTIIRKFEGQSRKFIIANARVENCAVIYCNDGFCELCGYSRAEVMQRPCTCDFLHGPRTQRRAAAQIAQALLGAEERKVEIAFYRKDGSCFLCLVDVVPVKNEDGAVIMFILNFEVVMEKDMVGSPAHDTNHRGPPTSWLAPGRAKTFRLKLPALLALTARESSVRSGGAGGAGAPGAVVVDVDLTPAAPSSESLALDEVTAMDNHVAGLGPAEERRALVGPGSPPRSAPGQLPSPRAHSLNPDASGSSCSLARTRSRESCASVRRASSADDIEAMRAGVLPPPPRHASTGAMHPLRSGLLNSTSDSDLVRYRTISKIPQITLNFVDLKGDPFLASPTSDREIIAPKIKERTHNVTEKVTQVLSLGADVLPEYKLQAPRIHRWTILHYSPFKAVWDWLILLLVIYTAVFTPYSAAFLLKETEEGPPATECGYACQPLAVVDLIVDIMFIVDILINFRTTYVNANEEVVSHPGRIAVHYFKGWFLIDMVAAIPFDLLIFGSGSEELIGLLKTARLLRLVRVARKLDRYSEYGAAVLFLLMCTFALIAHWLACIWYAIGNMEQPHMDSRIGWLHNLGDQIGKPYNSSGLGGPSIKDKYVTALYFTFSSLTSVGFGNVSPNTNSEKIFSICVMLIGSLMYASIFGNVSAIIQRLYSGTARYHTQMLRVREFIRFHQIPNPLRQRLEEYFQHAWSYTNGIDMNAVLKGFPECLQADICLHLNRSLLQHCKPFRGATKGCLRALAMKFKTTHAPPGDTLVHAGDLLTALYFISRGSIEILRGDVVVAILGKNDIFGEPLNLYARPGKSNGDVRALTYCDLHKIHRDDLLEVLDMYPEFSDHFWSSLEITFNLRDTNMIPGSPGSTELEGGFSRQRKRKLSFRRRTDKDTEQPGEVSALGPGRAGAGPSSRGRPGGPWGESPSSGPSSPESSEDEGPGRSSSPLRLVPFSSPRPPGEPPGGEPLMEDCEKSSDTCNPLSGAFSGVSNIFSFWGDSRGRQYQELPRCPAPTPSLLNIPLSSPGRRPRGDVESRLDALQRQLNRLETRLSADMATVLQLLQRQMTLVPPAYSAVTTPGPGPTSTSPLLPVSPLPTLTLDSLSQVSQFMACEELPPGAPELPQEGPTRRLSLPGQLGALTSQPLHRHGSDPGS

[19] = test system: Staphylococcus aureus; assay: Antibacterial activity against methicillin-sensitive Staphylococcus aureus infected in Kunming mouse dosed subcutaneously at 0.5 and 4.0 hrs postinfection and measured at 7 to 14 days post treatment by Bliss method; type: functional; conditions: sc
[20] = biological target: DNA gyrase (Staphylococcus aureus, UniProt P0A0K8+P20831)
DNA gyrase, sequence (P0A0K8 whole entry): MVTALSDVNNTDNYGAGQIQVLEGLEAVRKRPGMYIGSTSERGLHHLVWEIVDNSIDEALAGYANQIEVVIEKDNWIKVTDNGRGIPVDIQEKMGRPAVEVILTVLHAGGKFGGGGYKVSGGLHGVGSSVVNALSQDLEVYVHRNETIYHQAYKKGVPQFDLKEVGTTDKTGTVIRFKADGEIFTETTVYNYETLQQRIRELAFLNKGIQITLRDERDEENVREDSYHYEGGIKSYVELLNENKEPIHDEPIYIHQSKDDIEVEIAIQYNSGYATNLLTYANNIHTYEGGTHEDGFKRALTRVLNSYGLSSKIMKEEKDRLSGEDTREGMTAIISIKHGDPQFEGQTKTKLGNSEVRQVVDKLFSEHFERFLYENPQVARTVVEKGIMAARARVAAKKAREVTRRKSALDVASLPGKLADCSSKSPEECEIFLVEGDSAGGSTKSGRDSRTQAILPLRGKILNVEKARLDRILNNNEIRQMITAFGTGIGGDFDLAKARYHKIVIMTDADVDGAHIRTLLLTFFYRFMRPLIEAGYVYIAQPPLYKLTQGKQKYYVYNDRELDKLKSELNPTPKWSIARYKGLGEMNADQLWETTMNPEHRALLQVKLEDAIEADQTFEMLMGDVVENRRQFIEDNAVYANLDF
DNA gyrase, sequence (P20831 whole entry): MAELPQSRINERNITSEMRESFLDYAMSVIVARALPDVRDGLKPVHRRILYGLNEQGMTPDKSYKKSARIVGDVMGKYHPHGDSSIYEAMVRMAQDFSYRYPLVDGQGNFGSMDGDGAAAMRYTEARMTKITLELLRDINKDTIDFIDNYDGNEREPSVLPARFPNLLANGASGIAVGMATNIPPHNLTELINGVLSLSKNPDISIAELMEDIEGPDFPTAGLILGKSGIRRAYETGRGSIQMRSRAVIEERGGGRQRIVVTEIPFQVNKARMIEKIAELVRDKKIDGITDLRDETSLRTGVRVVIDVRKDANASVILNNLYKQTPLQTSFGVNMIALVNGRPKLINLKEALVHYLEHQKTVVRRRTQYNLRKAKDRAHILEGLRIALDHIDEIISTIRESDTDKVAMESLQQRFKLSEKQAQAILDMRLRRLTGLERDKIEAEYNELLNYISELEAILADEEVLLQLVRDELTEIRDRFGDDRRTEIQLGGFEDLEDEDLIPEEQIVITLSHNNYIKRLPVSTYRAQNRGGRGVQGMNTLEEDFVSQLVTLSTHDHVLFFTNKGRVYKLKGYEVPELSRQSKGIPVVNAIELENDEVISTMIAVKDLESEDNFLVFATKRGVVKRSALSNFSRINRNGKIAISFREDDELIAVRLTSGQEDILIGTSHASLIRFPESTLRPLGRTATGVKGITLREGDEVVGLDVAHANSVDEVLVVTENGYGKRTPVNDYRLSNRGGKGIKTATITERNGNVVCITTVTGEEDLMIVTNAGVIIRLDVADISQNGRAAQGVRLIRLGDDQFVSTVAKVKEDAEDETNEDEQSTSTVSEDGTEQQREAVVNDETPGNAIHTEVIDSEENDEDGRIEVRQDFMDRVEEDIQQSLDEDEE
Description: Inhibition of Staphylococcus aureus DNA gyrase supercoiling activity using relaxed pHOT-1 DNA as substrate after 60 mins by ethidium bromide-based gel electrophoresis

[21] = test system: Staphylococcus aureus; assay: Antibacterial activity against methicillin-sensitive Staphylococcus aureus after 18 to 20 hrs by CLSI-protocol based broth microdilution method; type: functional; conditions: Staphylococcus aureus; read-out: MIC
[22] = test system: Staphylococcus aureus; assay: Antibacterial activity against methicillin-resistant Staphylococcus aureus after 18 to 20 hrs by CLSI-protocol based broth microdilution method; type: functional

DNA topoisomerase 2-alpha, sequence (P11388 whole entry): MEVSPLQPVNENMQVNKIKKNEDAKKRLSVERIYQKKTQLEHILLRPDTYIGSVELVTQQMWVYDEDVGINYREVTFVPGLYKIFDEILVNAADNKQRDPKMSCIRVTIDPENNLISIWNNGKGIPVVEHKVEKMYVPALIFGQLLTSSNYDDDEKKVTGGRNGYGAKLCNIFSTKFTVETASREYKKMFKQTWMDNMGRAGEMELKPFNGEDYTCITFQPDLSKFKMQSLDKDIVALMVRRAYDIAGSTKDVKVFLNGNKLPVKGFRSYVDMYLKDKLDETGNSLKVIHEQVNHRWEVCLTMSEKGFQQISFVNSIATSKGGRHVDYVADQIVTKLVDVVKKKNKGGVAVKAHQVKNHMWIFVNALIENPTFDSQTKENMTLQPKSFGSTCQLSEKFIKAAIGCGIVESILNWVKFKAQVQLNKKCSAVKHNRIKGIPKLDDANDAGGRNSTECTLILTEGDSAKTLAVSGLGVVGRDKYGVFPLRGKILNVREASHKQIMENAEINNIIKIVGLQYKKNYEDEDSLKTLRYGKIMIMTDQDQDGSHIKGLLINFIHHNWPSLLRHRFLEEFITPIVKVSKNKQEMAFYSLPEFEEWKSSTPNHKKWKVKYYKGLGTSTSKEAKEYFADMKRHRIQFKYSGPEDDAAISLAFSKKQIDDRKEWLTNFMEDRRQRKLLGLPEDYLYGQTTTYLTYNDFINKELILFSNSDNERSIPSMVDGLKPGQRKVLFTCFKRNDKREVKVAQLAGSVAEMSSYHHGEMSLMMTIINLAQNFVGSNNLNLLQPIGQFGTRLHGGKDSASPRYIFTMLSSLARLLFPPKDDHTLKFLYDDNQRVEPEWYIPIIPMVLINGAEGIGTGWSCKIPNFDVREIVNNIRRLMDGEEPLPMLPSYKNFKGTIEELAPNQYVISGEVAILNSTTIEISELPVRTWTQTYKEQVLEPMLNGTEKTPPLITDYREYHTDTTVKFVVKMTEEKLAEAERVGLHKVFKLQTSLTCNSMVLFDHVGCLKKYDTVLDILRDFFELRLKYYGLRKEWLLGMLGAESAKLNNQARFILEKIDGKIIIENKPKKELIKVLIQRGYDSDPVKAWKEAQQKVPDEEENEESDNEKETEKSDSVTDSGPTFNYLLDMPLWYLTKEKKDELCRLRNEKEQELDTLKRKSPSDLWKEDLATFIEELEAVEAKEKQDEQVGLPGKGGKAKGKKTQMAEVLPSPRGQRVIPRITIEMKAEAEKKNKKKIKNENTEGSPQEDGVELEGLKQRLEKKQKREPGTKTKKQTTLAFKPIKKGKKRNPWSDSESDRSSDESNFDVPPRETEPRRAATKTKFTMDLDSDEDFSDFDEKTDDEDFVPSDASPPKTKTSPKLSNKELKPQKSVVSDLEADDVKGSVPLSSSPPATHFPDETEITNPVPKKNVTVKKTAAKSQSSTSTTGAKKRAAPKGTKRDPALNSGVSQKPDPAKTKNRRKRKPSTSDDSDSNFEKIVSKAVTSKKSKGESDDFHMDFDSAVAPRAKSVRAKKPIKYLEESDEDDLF

COc1cccc2c1C(=O)c1c(O)c3c(c(O)c1C2=O)C[C@@](O)(C(=O)CO)C[C@@H]3O[C@H]1C[C@H](N)[C@H](O)[C@H](C)O1 [DOXORUBICIN]
IC50 [1]: 0.6 µM

C[C@@H]1CN2c3c(cc4c(N5C[C@H](C)SC5=O)noc4c3F)CC3(C(=O)NC(=O)NC3=O)[C@H]2[C@H](C)O1
MIC [2]: < 0.03 µg/mL | MIC [3]: < 0.03 µg/mL | MIC [4]: < 0.03 µg/mL | MIC [5]: < 0.03 µg/mL | MIC50 [6]: 0.06 µg/mL (≈ 0.119 µM) | MIC90 [6]: 0.125 µg/mL (≈ 0.248 µM) | AUC(0-t) [7]: 22.5 µg·h/mL | MRT [8]: 11.4 h | Cmax [9]: 2080 ng/mL | Tmax [10]: 1.33 h | half-life [11]: 7.68 h | AUC(0-t) [12]: 452 µg·h/mL | half-life [13]: 8.63 h | bioavailability [14]: 52.7% | solubility at 24 h [15]: 11.3 µM (≈ 5.69 µg/mL) | solubility at 24 h [16]: 9.4 µM (≈ 4.73 µg/mL) | solubility at 24 h [17]: 10.2 µM (≈ 5.14 µg/mL) | IC50 [18]: > 40 µM | IC50 [1]: > 200 µM | ED50 [19]: 9.59 mg/kg | IC50 [20]: 12.6 µM

CC[C@H]1CN(c2noc3c(F)c4c(cc23)CC2(C(=O)NC(=O)NC2=O)[C@H]2[C@H](C)O[C@H](C)CN42)C(=O)S1
MIC [21]: < 0.03 µg/mL | MIC [22]: < 0.03 µg/mL | MIC [3]: < 0.03 µg/mL | MIC [5]: < 0.03 µg/mL | IC50 [1]: 128 µM | IC50 [20]: 9.1 µM

COC[C@H]1CN(c2noc3c(F)c4c(cc23)CC2(C(=O)NC(=O)NC2=O)[C@H]2[C@H](C)O[C@H](C)CN42)C(=O)S1
MIC [21]: 0.03 to 0.25 µg/mL (≈ 0.0562 to 0.469 µM) | MIC [22]: 0.03 to 0.5 µg/mL (≈ 0.0562 to 0.937 µM) | MIC [2]: 0.03 to 0.125 µg/mL (≈ 0.0562 to 0.234 µM) | MIC [3]: < 0.03 µg/mL | MIC [5]: 0.25 to 0.5 µg/mL (≈ 0.469 to 0.937 µM) | MIC50 [6]: 0.25 µg/mL (≈ 0.469 µM) | MIC90 [6]: 0.5 µg/mL (≈ 0.937 µM) | Tmax [10]: 0.58 h | IC50 [18]: > 40 µM | IC50 [1]: > 200 µM | IC50 [20]: 9.4 µM

CC(=O)NC[C@H]1CN(c2noc3c(F)c4c(cc23)CC2(C(=O)NC(=O)NC2=O)[C@H]2[C@H](C)O[C@H](C)CN42)C(=O)S1
MIC [21]: 16 µg/mL (≈ 28.5 µM) | MIC [22]: 16 to 64 µg/mL (≈ 28.5 to 114 µM) | MIC [2]: 2 to 8 µg/mL (≈ 3.57 to 14.3 µM) | MIC [3]: 0.5 to 2 µg/mL (≈ 0.892 to 3.57 µM) | MIC [4]: 2 µg/mL (≈ 3.57 µM) | MIC [5]: 16 to 32 µg/mL (≈ 28.5 to 57.1 µM)

C[C@@H]1CN2c3c(cc4c(N5C(=O)S[C@H]6CCC[C@H]65)noc4c3F)CC3(C(=O)NC(=O)NC3=O)[C@H]2[C@H](C)O1
MIC [21]: 0.25 to 0.5 µg/mL (≈ 0.472 to 0.944 µM) | MIC [22]: 0.25 to 1 µg/mL (≈ 0.472 to 1.89 µM) | MIC [2]: 0.5 µg/mL (≈ 0.944 µM) | MIC [3]: 0.5 µg/mL (≈ 0.944 µM) | MIC [4]: 0.25 to 0.5 µg/mL (≈ 0.472 to 0.944 µM) | MIC [5]: 0.125 µg/mL (≈ 0.236 µM)

Reference: ChEMBL document CHEMBL4316588, “Design, Synthesis, and Biological Evaluation of Novel DNA Gyrase-Inhibiting Spiropyrimidinetriones as Potent Antibiotics for Treatment of Infections Caused by Multidrug-Resistant Gram-Positive Bacteria” (J Med Chem, 2019)
